Experimental data as given in BigSolDB 2.1.

C[C@@H]1CC[C@@]2(OC1)O[C@H]1C[C@H]3[C@@H]4CC=C5C[C@@H](O)CC[C@]5(C)[C@H]4CC[C@]3(C)[C@H]1[C@@H]2C
Conditions | solubility (mole fraction)
in acetone, 295.15 K | 0.000904
in acetone, 302.15 K | 0.00115
in acetone, 304.65 K | 0.00127
in acetone, 308.15 K | 0.0014
in acetone, 310.15 K | 0.00149
in acetone, 312.15 K | 0.00159
in acetone, 313.65 K | 0.0017
in acetone, 315.65 K | 0.00184
in acetone, 317.15 K | 0.00194
in acetone, 319.15 K | 0.00204
in acetone, 321.15 K | 0.00217
in acetone, 322.65 K | 0.0023
in acetone, 324.65 K | 0.00243
in acetone, 326.65 K | 0.00256
in acetone, 327.65 K | 0.00267
in acetone, 329.15 K | 0.00279
in acetone, 330.15 K | 0.00292
in acetone, 332.15 K | 0.00303
in ethanol, 299.15 K | 0.00133
in ethanol, 303.15 K | 0.00144
in ethanol, 306.15 K | 0.00153
in ethanol, 308.65 K | 0.00161
in ethanol, 311.65 K | 0.00169
in ethanol, 313.65 K | 0.00175
in ethanol, 315.65 K | 0.00184
in ethanol, 317.15 K | 0.00193
in ethanol, 319.15 K | 0.002
in ethanol, 320.65 K | 0.00208
in ethanol, 322.65 K | 0.00215
in ethanol, 324.15 K | 0.00224
in ethanol, 326.15 K | 0.00233
in ethanol, 327.65 K | 0.00241
in ethanol, 328.65 K | 0.00249
in ethanol, 329.65 K | 0.00258
in ethanol, 330.65 K | 0.00268
in ethanol, 331.65 K | 0.00276
in ethanol, 332.65 K | 0.00284
in ethyl acetate, 300.65 K | 0.0024
in ethyl acetate, 302.15 K | 0.00258
in ethyl acetate, 303.15 K | 0.00276
in ethyl acetate, 303.65 K | 0.00294
in ethyl acetate, 305.15 K | 0.00317
in ethyl acetate, 307.15 K | 0.00338
in ethyl acetate, 308.65 K | 0.0036
in ethyl acetate, 310.65 K | 0.00383
in ethyl acetate, 311.65 K | 0.00402
in ethyl acetate, 313.65 K | 0.00423
in ethyl acetate, 315.65 K | 0.00447
in ethyl acetate, 316.65 K | 0.00466
in ethyl acetate, 318.15 K | 0.00492
in ethyl acetate, 320.15 K | 0.00523
in ethyl acetate, 321.65 K | 0.00545
in ethyl acetate, 323.15 K | 0.00577
in ethyl acetate, 324.65 K | 0.00602
in ethyl acetate, 326.65 K | 0.00628
in ethyl acetate, 327.65 K | 0.0065
in ethyl acetate, 328.95 K | 0.00673
in isopropanol, 293.15 K | 0.000835
in isopropanol, 296.65 K | 0.000975
in isopropanol, 300.65 K | 0.00111
in isopropanol, 303.15 K | 0.00123
in isopropanol, 304.65 K | 0.00134
in isopropanol, 306.65 K | 0.00145
in isopropanol, 308.65 K | 0.00157
in isopropanol, 311.15 K | 0.00167
in isopropanol, 314.65 K | 0.00178
in isopropanol, 317.15 K | 0.00192
in isopropanol, 319.15 K | 0.00203
in isopropanol, 321.15 K | 0.00216
in isopropanol, 324.65 K | 0.0023
in isopropanol, 326.15 K | 0.00241
in isopropanol, 328.15 K | 0.00253
in isopropanol, 330.15 K | 0.00267
in isopropanol, 332.15 K | 0.00282
in methanol, 291.15 K | 0.000187
in methanol, 298.15 K | 0.000257
in methanol, 300.15 K | 0.000325
in methanol, 308.15 K | 0.000401
in methanol, 312.65 K | 0.000469
in methanol, 315.15 K | 0.00051
in methanol, 317.65 K | 0.000556
in methanol, 319.65 K | 0.0006
in methanol, 322.15 K | 0.000643
in methanol, 323.65 K | 0.000694
in methanol, 325.65 K | 0.000743
in methanol, 327.15 K | 0.000795
in methanol, 328.15 K | 0.000847
in methanol, 329.15 K | 0.00091
in methanol, 331.65 K | 0.000994
in n-propyl acetate, 296.15 K | 0.0021
in n-propyl acetate, 300.15 K | 0.00263
in n-propyl acetate, 306.65 K | 0.00313
in n-propyl acetate, 307.15 K | 0.00321
in n-propyl acetate, 310.15 K | 0.00356
in n-propyl acetate, 314.65 K | 0.00402
in n-propyl acetate, 317.65 K | 0.00442
in n-propyl acetate, 319.65 K | 0.0047
in n-propyl acetate, 322.15 K | 0.00495
in n-propyl acetate, 323.65 K | 0.0053
in n-propyl acetate, 325.15 K | 0.00543
in n-propyl acetate, 327.15 K | 0.00575
in n-propyl acetate, 328.65 K | 0.00616
in n-propyl acetate, 329.15 K | 0.00612
